Paper PMC7054760, “Structural and biochemical evaluation of bisubstrate inhibitors of protein arginine N-methyltransferases PRMT1 and CARM1 (PRMT4)” (Biochemical Journal, 2020)
Like-named read-outs stand apart in the source and are kept apart here.

T1: human CARM1 (CARM1_135–479) (Homo sapiens, UniProt Q86X55)
T1 sequence (Q86X55 135-479): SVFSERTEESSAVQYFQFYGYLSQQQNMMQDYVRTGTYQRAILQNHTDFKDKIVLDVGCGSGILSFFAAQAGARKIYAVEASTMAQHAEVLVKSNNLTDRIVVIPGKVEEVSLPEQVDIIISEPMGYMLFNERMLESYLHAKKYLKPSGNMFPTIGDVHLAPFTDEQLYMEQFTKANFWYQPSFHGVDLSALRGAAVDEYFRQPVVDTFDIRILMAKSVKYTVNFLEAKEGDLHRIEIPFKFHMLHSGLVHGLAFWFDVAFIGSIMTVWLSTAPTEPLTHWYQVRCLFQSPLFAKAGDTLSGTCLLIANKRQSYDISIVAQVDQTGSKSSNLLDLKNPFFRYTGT

T2: CARM1_135–479 (Homo sapiens, UniProt Q86X55)
T2 construct: human CARM1, residues 135 to 479; MBP (N, cleaved yes); linker and TEV site […]; (N, cleaved yes); made in house; host or cells: E. coli BL21-CodonPlus (DE3)-RIL
T2 sequence (Q86X55 135-479): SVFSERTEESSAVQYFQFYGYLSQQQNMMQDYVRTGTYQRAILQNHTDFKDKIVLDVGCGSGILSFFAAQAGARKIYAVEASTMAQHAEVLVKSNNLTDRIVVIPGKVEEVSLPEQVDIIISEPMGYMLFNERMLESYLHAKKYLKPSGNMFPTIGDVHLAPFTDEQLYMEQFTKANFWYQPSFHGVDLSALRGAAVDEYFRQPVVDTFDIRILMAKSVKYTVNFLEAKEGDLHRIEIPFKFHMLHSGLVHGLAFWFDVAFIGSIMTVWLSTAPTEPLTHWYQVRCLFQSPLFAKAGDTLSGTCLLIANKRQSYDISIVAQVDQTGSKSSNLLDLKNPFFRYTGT

T3: CARM1 N161E (Homo sapiens, UniProt Q86X55, N161E)
T3 sequence (Q86X55 135-479 N161E): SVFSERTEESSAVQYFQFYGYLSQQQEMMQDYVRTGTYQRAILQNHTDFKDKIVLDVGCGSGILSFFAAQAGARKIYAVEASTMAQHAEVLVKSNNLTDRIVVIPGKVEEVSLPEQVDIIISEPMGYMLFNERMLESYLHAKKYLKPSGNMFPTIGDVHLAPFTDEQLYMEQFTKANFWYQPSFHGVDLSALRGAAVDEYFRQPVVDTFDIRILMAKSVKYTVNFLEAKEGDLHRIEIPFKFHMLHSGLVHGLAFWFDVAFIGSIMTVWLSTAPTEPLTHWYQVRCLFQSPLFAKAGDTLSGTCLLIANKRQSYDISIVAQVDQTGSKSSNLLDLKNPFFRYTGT

T4: CARM1 N265Y (Homo sapiens, UniProt Q86X55, N265Y)
T4 sequence (Q86X55 135-479 N265Y): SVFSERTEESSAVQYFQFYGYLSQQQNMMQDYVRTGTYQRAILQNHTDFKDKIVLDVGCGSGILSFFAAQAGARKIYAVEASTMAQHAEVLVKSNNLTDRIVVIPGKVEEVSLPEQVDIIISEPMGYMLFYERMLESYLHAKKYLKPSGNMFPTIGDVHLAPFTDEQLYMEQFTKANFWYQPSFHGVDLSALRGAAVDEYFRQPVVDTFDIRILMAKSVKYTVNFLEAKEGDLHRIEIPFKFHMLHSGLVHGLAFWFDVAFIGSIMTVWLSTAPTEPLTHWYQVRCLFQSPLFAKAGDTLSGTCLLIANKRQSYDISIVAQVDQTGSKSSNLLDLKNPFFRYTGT

B1: catalytic domain of human CARM1, residues 135 to 479 (domain or fragment, UniProt Q86X55 135-479, looked up)
chain: SVFSERTEESSAVQYFQFYGYLSQQQNMMQDYVRTGTYQRAILQNHTDFKDKIVLDVGCGSGILSFFAAQAGARKIYAVEASTMAQHAEVLVKSNNLTDRIVVIPGKVEEVSLPEQVDIIISEPMGYMLFNERMLESYLHAKKYLKPSGNMFPTIGDVHLAPFTDEQLYMEQFTKANFWYQPSFHGVDLSALRGAAVDEYFRQPVVDTFDIRILMAKSVKYTVNFLEAKEGDLHRIEIPFKFHMLHSGLVHGLAFWFDVAFIGSIMTVWLSTAPTEPLTHWYQVRCLFQSPLFAKAGDTLSGTCLLIANKRQSYDISIVAQVDQTGSKSSNLLDLKNPFFRYTGT
notes: MBP and the linker removed with TEV protease; also called CARM1_(135–479); CARM1 catalytic domain; not shown: MBP, N-terminal, cleaved

How the values were obtained:
[1] = test system: CARM1; conditions: cited from earlier work
[2] = test system: multiple myeloma xenograft model; parameters: method as in PMID 29269946; conditions: cited from earlier work
[3] = molecular target: human PRMT1 (PRMT1_22–361) (Homo sapiens, UniProt Q99873); assay: Isothermal titration calorimetry (ITC) with PRMT1; assay type: binding; conditions: for -T∆S, PRMT1: calculated indirectly
Sequence of human PRMT1 (PRMT1_22–361) (Q99873 32-371): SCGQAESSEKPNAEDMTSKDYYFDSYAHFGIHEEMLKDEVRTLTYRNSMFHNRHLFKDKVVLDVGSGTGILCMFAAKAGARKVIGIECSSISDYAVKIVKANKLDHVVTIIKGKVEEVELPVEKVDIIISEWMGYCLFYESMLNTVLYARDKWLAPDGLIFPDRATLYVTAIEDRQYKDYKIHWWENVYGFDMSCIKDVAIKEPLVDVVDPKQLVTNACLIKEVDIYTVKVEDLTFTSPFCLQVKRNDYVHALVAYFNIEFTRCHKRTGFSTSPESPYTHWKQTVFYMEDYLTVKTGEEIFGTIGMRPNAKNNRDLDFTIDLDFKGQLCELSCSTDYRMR

[4] = molecular target: T1, human CARM1 (CARM1_135–479); assay: Isothermal titration calorimetry (ITC) with CARM1 catalytic domain; assay type: binding; conditions: for -T∆S, CARM1: calculated indirectly; for ∆G, CARM1: calculated indirectly from best-fit Kd and ∆H; for Binding more strongly to CARM1 over PRMT1 (as judged by ITC): ratio of Kd values PRMT1/CARM1
[5] = molecular target: PRMT1_22–361 (Homo sapiens, UniProt Q99873); assay: Radiometric methylation assay, PRMT1 with H4(1–21) and [methyl-3H]-SAM; assay type: biochemical; conditions: 160 nM PRMT1, 40 µM H4(1–21), 0.23 µM [3H]-SAM, 30°C, 60 min; read-out: IC50 (95% confidence interval), PRMT1
Sequence of PRMT1_22–361 (Q99873 32-371): as above

[6] = molecular target: T2, CARM1_135–479; assay: Radiometric methylation assay, CARM1 with H3(3–31) and [methyl-3H]-SAM; assay type: biochemical; conditions: 0.23 µM [3H]-SAM
[7] = molecular target: T3, CARM1 N161E; assay: ITC with CARM1 N161E mutant; conditions: for N ± standard error, CARM1 N161E / ∆H ± standard error, CARM1 N161E / -T∆S, CARM1 N161E / ∆G, CARM1 N161E: ITC; for -T∆S, CARM1 N161E / ∆G, CARM1 N161E: calculated indirectly
[8] = molecular target: T4, CARM1 N265Y; assay: ITC with CARM1 N265Y mutant; conditions: for N ± standard error, CARM1 N265Y / ∆H ± standard error, CARM1 N265Y / -T∆S, CARM1 N265Y / ∆G, CARM1 N265Y: ITC; for -T∆S, CARM1 N265Y / ∆G, CARM1 N265Y: calculated indirectly
[9] = test system: other methyltransferases; parameters: method as in PMID 29719619; conditions: cited from earlier work
[10] = molecular target: the molecule itself; assay: crystal structure; CARM1(135-479) co-crystallised with small-molecule inhibitors 4, 5, 6 and 7; sitting-drop vapour diffusion, 20°C; space group P2(1)2(1)2
[11] = ITC, 25°C, read-out: Kd ± standard error, CARM1
[12] = 320 nM CARM1, 120 µM H3(3–31), read-out: IC50 (95% confidence interval), CARM1
[13] = ITC, Table 2, wild-type, read-out: Kd ± standard error from curve fitting, CARM1 WT

Row | Molecule | N (stoichiometry) ± standard error from curve fitting, CARM1 ([4]; ITC) | ∆H ± standard error from curve fitting, CARM1 ([4]; ITC) | Kd [4, 11] | -T∆S, CARM1 ([4]; ITC) | ∆G, CARM1 ([4]; ITC) | IC50 [6, 12] | Kd [4, 13] | Kd [7] | N ± standard error, CARM1 N161E [7] | ∆H ± standard error, CARM1 N161E [7] | -T∆S, CARM1 N161E [7] | ∆G, CARM1 N161E [7] | Kd [8] | N ± standard error, CARM1 N265Y [8] | ∆H ± standard error, CARM1 N265Y [8] | -T∆S, CARM1 N265Y [8] | ∆G, CARM1 N265Y [8] | also measured
1 | CNC[C@@H](O)COc1ccc(Cl)c(-c2nc(-c3c(C)noc3C)c(C)c(N3CC4(CCN(C(=O)OC)CC4)C3)n2)c1 [EPZ022302/EZM2302] |  |  |  |  |  |  |  |  |  |  |  |  |  |  |  |  |  | IC50 ([1]; read-out: CARM1 inhibitor potency): […]; Anti-tumour activity in vivo [2]: anti-tumour activity in vivo
2 | N=C(N)NCCCN(CCCN)C[C@H]1O[C@@H](n2cnc3c(N)ncnc32)[C@H](O)[C@@H]1O [Inhibitor 4] | 0.481 ± 0.0062 | -24.6 ± 0.633 kcal/mol | 3320 ± 335 nM | 17.2 kcal/mol | -7.48 kcal/mol | 2300 nM |  |  |  |  |  |  |  |  |  |  |  | N (stoichiometry) ± standard error from curve fitting, PRMT1 [3]: 0.519 ± 0.0082; ∆H ± standard error from curve fitting, PRMT1 ([3]; 10: competition experiment): -16 ± 0.77 kcal/mol; Kd ([3]; 25°C, direct titration, 7: stoichiometry fixed to 0.5, read-out: Kd ± standard error, PRMT1): 10200 ± 996 nM; ∆G, PRMT1 ([3]; calculated indirectly from best-fit Kd and ∆H, 10: competition experiment): -6.81 kcal/mol; -T∆S, PRMT1 ([3]; 10: competition experiment): 9.2 kcal/mol; IC50 [5]: 7200 nM
3 | N=C(N)NCCCCCN(CC[C@H](N)C(=O)O)C[C@H]1O[C@@H](n2cnc3c(N)ncnc32)[C@H](O)[C@@H]1O [Inhibitor 7] | 0.648 ± 0.032 | -18.6 ± 2.31 kcal/mol | 38100 ± 9610 nM | 12.5 kcal/mol | -6.02 kcal/mol | 24100 nM | 38100 ± 9610 nM | 8180 ± 482 nM |  |  |  |  |  |  |  |  |  | 
4 | NCCCN(CCCNc1ncccn1)C[C@H]1O[C@@H](n2cnc3c(N)ncnc32)[C@H](O)[C@@H]1O [Inhibitor 8] | 0.529 ± 0.0042 | -29.6 ± 0.445 kcal/mol | 2300 ± 162 nM | 22 kcal/mol | -7.7 kcal/mol | 700 nM | 2300 ± 162 nM | 1110 ± 201 nM | 0.745 ± 0.012 | -27 ± 0.906 kcal/mol | 18.9 kcal/mol | -8.13 kcal/mol | 5180 ± 1860 nM | 0.698 ± 0.051 | -15 ± 2.01 kcal/mol | 7.82 kcal/mol | -7.22 kcal/mol | 
5 | NCCCN(CCCNc1ccccn1)C[C@H]1O[C@@H](n2cnc3c(N)ncnc32)[C@H](O)[C@@H]1O [Inhibitor 9] | 0.529 ± 0.025 | -20.6 ± 1.77 kcal/mol | 1140 ± 411 nM | 12.5 kcal/mol | -8.13 kcal/mol | 300 nM | 1140 ± 411 nM | 354 ± 34 nM | 0.914 ± 0.005 | -20.7 ± 0.28 kcal/mol | 11.9 kcal/mol | -8.8 kcal/mol | 3260 ± 458 nM | 1.07 ± 0.035 | -14.8 ± 0.803 kcal/mol | 7.31 kcal/mol | -7.48 kcal/mol | Binding more strongly to CARM1 over PRMT1 (as judged by ITC) [4]: ~15 fold
6 | Nc1ncnc2c1ncn2[C@@H]1O[C@H](CN(CCCNc2ccccn2)CC[C@H](N)C(=O)O)[C@@H](O)[C@H]1O [Inhibitor 10] | 0.536 ± 0.0079 | -17.5 ± 0.459 kcal/mol |  | 9.35 kcal/mol | -8.13 kcal/mol |  |  | 181 ± 17 nM | 1.02 ± 0.004 | -22.5 ± 0.232 kcal/mol | 13.3 kcal/mol | -9.2 kcal/mol | 143000 ± 75900 nM |  |  |  |  | Kd ([4]; Kd ± standard error from curve fitting, CARM1 WT, ITC, Table 2, wild-type): 1110 ± 132 nM; Kd ([4]; Kd ± standard error, CARM1, ITC, 25°C): 1110 ± 132 nM; Binding more strongly to CARM1 over PRMT1 (as judged by ITC) [4]: ~40 fold; IC50 ([6]; IC50 (95% confidence interval), CARM1, 320 nM CARM1, 120 µM H3(3–31)): 800 nM
7 | Nc1ncnc2c1ncn2[C@@H]1O[C@H](CSCC[C@H](N)C(=O)O)[C@@H](O)[C@H]1O [SAH, S-Adenosylhomocysteine, reference compound] | 0.549 ± 0.0086 | -35.1 ± 1.1 kcal/mol |  | 27 kcal/mol |  |  |  |  | 0.692 ± 0.0047 | -29.9 ± 0.44 kcal/mol | 20.6 kcal/mol | -9.39 kcal/mol |  | 0.737 ± 0.004 | -23.7 ± 0.251 kcal/mol | 15.8 kcal/mol | -7.96 kcal/mol | N (stoichiometry) ± standard error from curve fitting, PRMT1 [3]: 0.485 ± 0.0037; ∆H ± standard error from curve fitting, PRMT1 ([3]; 10: competition experiment): -23.4 ± 0.335 kcal/mol; -T∆S, PRMT1 ([3]; 10: competition experiment): 15 kcal/mol
9 | B1 |  |  |  |  |  |  |  |  |  |  |  |  |  |  |  |  |  | binding result [10]: binds
